These results are taken from ChEMBL document CHEMBL4433262, “Synthesis and biological evaluation of novel benzo[c][1,2,5]thiadiazol-5-yl and thieno[3,2-c]- pyridin-2-yl imidazole derivatives as ALK5 inhibitors” (Bioorg Med Chem Lett, 2019).

Assay [1] has as its target T1, Mitogen-activated protein kinase 14 (Homo sapiens, UniProt Q16539). The assay is described as follows: Inhibition of human recombinant untagged p38alpha expressed in Escherichia coli using ATF2 as substrate incubated for 60 mins in presence of [33P]-ATP by scintillation counting method.
The target in the next assay is T2, TGF-beta receptor type-1 (Homo sapiens, UniProt P36897).
T2 sequence (P36897 whole entry): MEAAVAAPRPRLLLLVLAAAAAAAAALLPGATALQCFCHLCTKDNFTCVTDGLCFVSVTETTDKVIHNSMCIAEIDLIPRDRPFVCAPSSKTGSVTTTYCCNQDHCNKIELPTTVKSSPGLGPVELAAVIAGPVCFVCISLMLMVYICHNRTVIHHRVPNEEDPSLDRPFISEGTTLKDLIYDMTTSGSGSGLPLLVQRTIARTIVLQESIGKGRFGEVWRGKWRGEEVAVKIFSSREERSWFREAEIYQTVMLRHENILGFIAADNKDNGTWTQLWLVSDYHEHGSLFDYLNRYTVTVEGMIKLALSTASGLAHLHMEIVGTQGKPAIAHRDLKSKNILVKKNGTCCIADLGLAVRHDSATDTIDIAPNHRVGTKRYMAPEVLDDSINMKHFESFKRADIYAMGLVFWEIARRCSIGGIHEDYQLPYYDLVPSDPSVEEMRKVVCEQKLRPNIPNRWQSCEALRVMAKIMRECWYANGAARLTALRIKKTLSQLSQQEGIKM
The assay is described as follows: Inhibition of human recombinant GST-tagged ALK5 expressed in Sf9 insect cells using casein as substrate incubated for 60 mins in presence of [33P]-ATP by scintillation counting method.

The target in assay [2] is T1, Mitogen-activated protein kinase 14. Nature of the assay: Potency index, ratio of IC50 for LY-2157299 to IC50 for test compound for inhibition of human recombinant untagged p38alpha expressed in Escherichia coli using ATF2 as substrate incubated for 60 mins in presence of [33P]-ATP by scintillation counting method.
In assay [3] the target is T3, TGF-beta receptor type-1 (Homo sapiens) (UniProt P36897).
T3 sequence (whole entry): T2 sequence (P36897 whole entry)
Nature of the assay: Potency index, ratio of IC50 for LY-2157299 to IC50 for test compound for inhibition of human recombinant GST-tagged ALK5 expressed in Sf9 insect cells using casein as substrate incubated for 60 mins in presence of [33P]-ATP by scintillation counting method.

For assay [4], the target named is T3, TGF-beta receptor type-1 (Homo sapiens). The assay is described as follows: Inhibition of ALK5 in human HepG2 cells assessed as reduction in TGFbeta1-induced Smad2 phosphorylation incubated for 36 hrs by Western blot analysis. The format is cell-based. (In general: A western blot detects proteins with antibodies after separation by electrophoresis.)
Assay [5] has as its target T1, Mitogen-activated protein kinase 14. Nature of the assay: Potency index, ratio of IC50 for EW-7197 to IC50 for test compound for inhibition of human recombinant untagged p38alpha expressed in Escherichia coli using ATF2 as substrate incubated for 60 mins in presence of [33P]-ATP by scintillation counting.
Assay [6] addresses T3, TGF-beta receptor type-1 (Homo sapiens). The assay is described as follows: Inhibition of ALK5 in human SPC-A1 cells assessed as reduction in TGFbeta1-induced Smad2 phosphorylation at 0.1 to 0.5 uM incubated for 36 hrs by Western blot analysis. The format is cell-based.
Assay [7] has the same target. Nature of the assay: Potency index, ratio of IC50 for EW-7197 to IC50 for test compound for inhibition of human recombinant GST-tagged ALK5 expressed in Sf9 insect cells using casein as substrate incubated for 60 mins in presence of [33P]-ATP by scintillation counting method.
Assay [8] shares this target. The assay is described as follows: Inhibition of ALK5 in human HUVEC cells assessed as reduction in TGFbeta1-induced cell motility at 10 uM incubated for 0 to 48 hrs by wound healing assay. The format is cell-based.

Each structure is given as a SMILES string. Active and inactive are the calls of the source. No cut-off for these calls is given here.

T1 sequence (Q16539 whole entry): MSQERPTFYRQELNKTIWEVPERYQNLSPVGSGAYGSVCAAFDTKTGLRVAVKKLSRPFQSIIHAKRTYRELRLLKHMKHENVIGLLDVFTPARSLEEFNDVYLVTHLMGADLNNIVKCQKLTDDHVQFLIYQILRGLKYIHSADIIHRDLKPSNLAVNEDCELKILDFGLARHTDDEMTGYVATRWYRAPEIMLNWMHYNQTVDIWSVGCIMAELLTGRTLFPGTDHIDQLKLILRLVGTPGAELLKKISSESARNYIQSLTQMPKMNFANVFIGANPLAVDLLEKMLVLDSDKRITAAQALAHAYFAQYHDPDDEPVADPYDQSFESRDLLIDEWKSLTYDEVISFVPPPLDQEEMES

The IC50 is the point on the concentration scale where inhibition reaches its midpoint. Take `Cc1ccc(NCc2nc(-c3cc4cnccc4s3)c(-c3cccc(C)n3)[nH]2)cc1`: the IC50 was more than 10000 nM in assay [1] and 43 nM at TGF-beta receptor type-1.

With `Cc1cccc(-c2[nH]c(CNc3cccc(F)c3)nc2-c2cc3cnccc3s2)n1`, the IC50 in [1] was 1520 nM; on TGF-beta receptor type-1, 17 nM.

Take `Cc1cccc(NCc2nc(-c3cc4cnccc4s3)c(-c3cccc(C)n3)[nH]2)c1`: the values for the IC50 (in [1]; at TGF-beta receptor type-1) were 2220 nM and 19 nM, respectively.

Consider `Cc1cccc(-c2[nH]c(CNc3ccccc3F)nc2-c2ccc3nsnc3c2)n1`, for which the IC50 in [1] came out at 1170 nM; at TGF-beta receptor type-1 it was 11 nM.

Consider `Cc1cccc(-c2[nH]c(CNc3ccccc3)nc2-c2cc3cnccc3s2)n1`, for which the half-inhibitory concentration (IC50) in assay [1] is 4400 nM; at TGF-beta receptor type-1, 25 nM.

As to `Cc1cccc(-c2[nH]c(CNc3cccc(F)c3)nc2-c2ccc3nsnc3c2)n1`, the Ratio IC50 in [2] was determined as 3.3; in [3], 16.1; in [5], 19.9; in assay [7], 1.8. The half-inhibitory concentration (IC50) was found to be 148 nM in assay [1] and 8 nM at TGF-beta receptor type-1. In addition, the inhibition result in assay [4] is “Dose-dependent effect”. Besides, the inhibition entry in assay [6] and in [8] was “Active” throughout.

Take `Cc1cccc(-c2[nH]c(CNc3ccccc3F)nc2-c2cc3cnccc3s2)n1`: the IC50 was 6060 nM in assay [1] and 23 nM at TGF-beta receptor type-1.

Take `Cc1cccc(-c2[nH]c(CNc3ccccc3C)nc2-c2ccc3nsnc3c2)n1`: the concentration for half-maximal inhibition (IC50) is 899 nM in assay [1] and 21 nM on TGF-beta receptor type-1.

Consider `Cc1cccc(NCc2nc(-c3ccc4nsnc4c3)c(-c3cccc(C)n3)[nH]2)c1`, for which the IC50 in assay [1] was 513 nM; at TGF-beta receptor type-1, 13 nM.

For `Cc1cccc(-c2[nH]c(CNc3ccccc3C)nc2-c2cc3cnccc3s2)n1`, the half-inhibitory concentration (IC50) in [1] was 2440 nM; at TGF-beta receptor type-1 it was 14 nM.

Regarding `Cc1ccc(NCc2nc(-c3ccc4nsnc4c3)c(-c3cccc(C)n3)[nH]2)cc1`, the IC50 was determined as 7700 nM in [1] and 22 nM at TGF-beta receptor type-1.

As for `Cc1cccc(-c2[nH]c(CNc3ccccc3)nc2-c2ccc3nsnc3c2)n1`, the IC50 in assay [1] is 763 nM; at TGF-beta receptor type-1 it was 14 nM.

Take `Cc1cccc(-c2[nH]c(CNc3ccc(F)cc3)nc2-c2ccc3nsnc3c2)n1`: the IC50 was 831 nM in assay [1] and 10 nM on TGF-beta receptor type-1.

`Cc1cccc(-c2[nH]c(CNc3ccc(F)cc3)nc2-c2cc3cnccc3s2)n1`: the IC50 came to 4840 nM in assay [1] and 42 nM on TGF-beta receptor type-1.
